According to patent US7371411B2, “Methods for production of the oxidized glutathione composite with CIS-diamminedichloroplatinum and pharmaceutical compositions based thereof regulating metabolism, proliferation, differentiation and apoptotic mechanisms for normal and transformed cells” (Novelos Therapeutics, Inc., priority 1998, dated 2008):

Key:
[1] = test system: chronic viral hepatitis B (HBV); experiment: Patients with chronic viral hepatitis B; assay type: in vivo, human
Experimental: Previous treatment: from 17 Sep. 1997 the patient was administered with acyclovir during 21 days.

[2] = test system: glutathione reductase, glutathione-peroxidase, glutathione-S-transferase, γ-glutamyl-transpeptidase; conditions: intravenous, 2 mg/kg
Experimental: In addition, the activity variation of the enzymes participating in GSSG metabolism was evaluated (glutathione reductase, glutathione-peroxidase, glutathione-S-transferase,γ-glutamyl-transpeptidase).
Activity of the enzymes participating in the GSSG metabolism (glutathione reductase: EC. 1.6.4.2; glutathione-peroxidase: EC. 1.11.1.9; glutathione-S-transferase: EC.2.5.1.18; g-glutamyl-transpeptidase: EC.2.3.2.2) were determined by the standard reagent kits produced by Boehringer Mannheim GmbH.

[3] = test system: mice irradiated in a dose of 1 Gy; conditions: 5 mg/kg intraperitoneally daily for seven days, 8th day
Excerpt: The study was designed to evaluate efficacy of seven-day daily administration of the test articles (with the dosing started two hours post-exposure) on the capability of the splenocytes from mice exposed to radiation to produce interleukin-1 (IL-1 α,b); interleukin-2 (IL-2); interleukin-3 (IL-3); interleukin-4 (IL-4); interleukin-6 (IL-6), interleukin-8 (IL-8); interleukin-10 (IL-10); interleukin-12 (IL-12); tumor necrosis factor-α, g (TNF-α, g), interferon-α, g (IFN-α,) and G-CSF, M-CSF, GM-CSF in vitro. In addition, the blood leukocyte and lymphocyte counts and the spleen and bone marrow cellularity (karyocyte count), as we well as splenic and medullary colony-stimulating capacity, were determined at the 8th day post-exposure.
Male CBA mice (18 to 20 g body weight) were irradiated with single dose of 180 kV X-rays filtered with 0.5 mm Cu (at 15 mA, distance—70 cm, duration two min. and 28 sec.). The total absorbed dose comprised approximately 1 Gy. […]
Additionally, hemopoietic colony-formation ability of spleen and bone marrow cells was assessed by the method of colony-forming unit (CFU) direct count in the spleens of irradiated singenic CBA mice receiving intravenously spleen or bone marrow cells obtained from animals of control or test groups.

[4] = test system: HL-60 myeloid line cells; experiment: Growth and apoptotic DNA degradation, HL-60 cells; conditions: 100 mg/mL
Experimental: The HL-60 myeloid line cells were grown in RPMI-1640 medium with addition of 10% fetal calf serum. Cultivation was carried out in closed flasks, the medium volume was 12 mL, it was replaced every four days.
(§1) The effect testing for the testing articles was performed 24, 48 hours after addition into the culture.
The analysis procedure involved the following: after 24-48 hour incubation there were calculated the total cell count and the dead cell count by the Trypan blue exclusion method; afterwards the cell suspension was centrifuged (at 12.000 g, in Eppendorf test-tubes during 10 min).
The HL-60 cell culture is human cells of myeloluekosis origin defective in the p53 gene.

[5] = test system: normal human lymphocytes; experiment: Growth and apoptotic DNA degradation, normal human lymphocytes; conditions: 100 mg/mL, 24, 48 hours
Experimental: Venous blood of healthy volunteers was collected into heparinized test-tubes, which had been tested for endotoxin. A mononuclear fraction of blood leukocytes was obtained by centrifugation in ficoll-metrizoat gradient (Histopaque, Sigma). Cell concentration was adjusted to 2×10^6 cells per 1 ml of cell culture medium (RPMI 1640), containing 20 mM HEPES, 2 mM glutamine, 50 mg/mL gentamicin and 10% fetal calf serum. Cell viability was estimated by the Trypan blue exclusion method, then the cell suspension was placed into wells of 24- and 96-well microliter plates—250,000 cells per well.
as §1
The analysis procedure involved the following: after 24-48 hour incubation there were calculated the total cell count and the dead cell count by the Trypan blue exclusion method; afterwards the cell suspension was centrifuged (at 12.000 g, in Eppendorf test-tubes during 10 min). The cell pellet was frozen and kept at −70° C. before the DNA separation. The DNA separation was conducted by Kirbi-Georgiyev phenol method. […] Then it was diluted in 10 mL of the A buffer; the DNA amount was determined by Dishe method and electrophoresis was performed in 2% agarose gel (agarose with NA grade made by “Pharmacia LKB, Biotechnology Inc” (Austria) was used). […]

[6] = test system: CP-treated mice; experiment: Cyclophosphamide-induced hemo- and immunodepression, murine model; conditions: CP 50 mg/kg; 5 mg/kg intraperitoneally daily for five days; day 8
Excerpt: The study was designed to evaluate the effect of a five-day long administration of the test articles on the capability of the CP-treated murine splenocytes to produce interleukin-1 (IL-1 α,b); interleukin-2 (IL-2); interleukin-3 (IL-3); interleukin-4 (IL-4); interleukin-6 (IL-6), interleukin-8 (IL-8); interleukin-10 (IL-10); interleukin-12 (IL-12); tumor necrosis factor-α, g (TNF-α, g), interferon-α, g (IFN-α, g) and G-CSF, M-CSF, GM-CSF in vitro. In addition, the blood leukocyte and lymphocyte count and the bone marrow cellularity (karyocyte count) were determined at eight days after CP administration. Some animals receiving CP were then challenged with sheep red blood cells (SRBC), and the humoral immune response to the antigen was evaluated.
Male CBA mice (180 to 200 g body weight) were given a single introperitoneal injection of CP in a dose of 50 mg/kg. Four groups of animals (with no less than 15 mice in each) were formed.
#3—animals receiving a single CP injection, which further were treated with the test article (GSSG dissolved in normal saline) in a dose of 5 mg/kg;
Twenty-four hours after the CP injection, five animals in each group were immunized with SRBC (10^7 cells in 0.5 mL of NS, intra-peritoneally).
Injections were performed during five days: once a day, daily. […]

[7] = test system: human peripheral blood mononuclear leukocytes; conditions: 0.5-5000 mg/mL, ConA, 24 hours
Experimental: Oxidized glutathione (GSSG) as well as a structural analog thereof, which is a hexapeptide with a stabilized disulfide bond, were evaluated for their effect on cytokine production by human peripheral blood mononuclear leukocytes in vitro.
The leukocytic cytokine production was triggered by adding a mitogen, concanavalin A (ConA) to the cell culture immediately after introducing the test substances. In 24 hours of the cellular exposure to ConA and the test articles, the culture supernatants were sampled and stored until cytokine determination at −70° C. […]
Each concentration was established in no less than six wells by adding 50 mL of medium containing the appropriate quantity of the previously dissolved test articles. […]
Immediately after the test articles had been introduced into the cultures, 50 mL of medium containing ConA (Sigma, cell culture tested) in a quantity required for a final concentration of 4.0 mg/mL, was added to all the wells excepting three additional ones which served for evaluation of spontaneous ^3H-thymidine uptake (without ConA). […]
The filters were dried and their radioactivity (counts per minute, cpm) was determined using liquid scintillation counter, Betaplate 1205 (LKB). […]

[8] = test system: stomach cancer; experiment: Patient with stomach cancer, peritoneal metastases, ascites, splenomegaly and cholestatic hepatitis
Experimental: A patient was diagnosed as having stomach neoplasm for more than two years (adenocarcinoma of moderate differentiation degree).
A decision was taken to apply GSSG drug form. The drug was injected parenterally (intramuscularly and intravenously), and additionally, the drug form was used via local injections around the tumor tissue through an endoscope. An average doses which were used for intramuscular and intravenous injections—0.1-0.5 mg/kg, and for local injections—up to 50 mg in situ. Parenteral injections of the drug were applied every other day, b.i.d. (intravenous injections at the morning, and intramuscular ones at the evening), during three weeks, and after that, two times a week during four weeks. The drug introduction through the endoscope was performed once in seven days.
The tumor was solid-like type. Stomach walls were rigid. Histology examination defined the tumor as a moderate degree differentiation adenocarcinoma. […] The drug was introduced according to the identical regime: parenterally (intramuscularly and intravenously), and additionally, the drug form was introduced via local injections around the tumor tissue through an endoscope. An average doses which were used for intramuscular and intravenous injections—0.1-0.5 mg/kg, and for local injections—up to 50 mg in situ. Parenteral injections of the drug were applied every other day, b.i.d. (intravenous injections at the morning, and intramuscular ones at the evening), during three weeks, and after that, two times in a week during four weeks. The drug introduction through the endoscope was performed once in seven days.

[9] = patient No. 4, previous treatment during 21 days
[10] = two months after treatment start

| Compound | ALT after the course completion [1, 9] [mmol/h/L] | Hbs Ag degree [1, 9] | bilirubin after the course completion [1, 9] [mmoVL] | liver protrusion beyond the costal arch after the treatment course ([1]; patient No. 3 (GSSG, before 2 cm), patient No. 4 (GSSG.Pt, before 2.5 cm)) [cm] | activity of the enzymes participating in the thiol (glutathione) metabolism [2] | cytokine and hemopoietic factor production by splenocytes [3] | DNA electrophoresis (apoptotic ladder) ([4]; 24 and 48 hours) | high molecular DNA in the apoptotic ladder ([4]; FIG. 14) | dead HL-60 cell quantity ([4]; Trypan blue exclusion) | normal cell proliferation [5] | cytokine and hemopoietic factor production by splenocytes [6] | cytokine production by human mononuclear leukocytes [7] | tumor size decrease ([8]; fibrogastrocopy data) [%] | hematology and blood chemistry indices [8, 10] | liver protrusion below the costal arch [8, 10] [cm] | tumor extent at fibrogastroscopy ([8]; two months after treatment start, before: about 8 cm (GSSG course), about 6 cm (GSSG.Pt course)) [cm] |
| --- | --- | --- | --- | --- | --- | --- | --- | --- | --- | --- | --- | --- | --- | --- | --- | --- |
| Nc1nc2c(ncn2COCCO)c(=O)[nH]1 [acyclovir] | 2.1 | did not change | 32 |  |  |  |  |  |  |  |  |  |  |  |  |  |
| bis-(γ-L-glutamyl)-L-cysteinyl-bis-glycine [GSSG] |  |  |  | 0.5 | increases approximately two times the activity | less significant effect | revealed the DNA oligonucleosomic degradation | contained considerable amount of the high molecular DNA | reliably lower than the one after the GSSG.Pt effect | stimulated the normal cell proliferation | only exiguous stimulating effect | statistically significant and dose-dependent stimulation of the cytokine production | 40 | substantial improvement of hematology and blood chemistry indices | 3 | 4.8 |
